Experimental data published in ChEMBL document CHEMBL1201862, “PubChem BioAssay data set” (2004).
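Values below derive from 48-hour exposures of cells grown in 96-well plates, with endpoints linearly interpolated between the two concentrations bracketing the appropriate inhibition level. At the GI50, growth is halved.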 Calls of active or inactive are those of the source. Rule as the data show it: active = GI50 up to about 1.1 µM and inactive = higher.

Legend:
Test in all cases: DTP human tumour cell line panel, 48 h
A549 = system: A549
COLO 205 = system: COLO 205
HL-60 = system: HL-60
HOP-92 = system: HOP-92
HT-29 = system: HT-29
IGROV-1 = system: IGROV-1
K562 = system: K562
M14 = system: M14
MCF7 = system: MCF7
MDA-MB-231 = system: MDA-MB-231
MDA-MB-435 = system: MDA-MB-435
NCI-H226 = system: NCI-H226
OVCAR-4 = system: OVCAR-4
PC-3 = system: PC-3
SK-OV-3 = system: SK-OV-3
SNB-19 = system: SNB-19
SR = system: SR
SW-620 = system: SW-620
U-251 = system: U-251
UACC-62 = system: UACC-62

Structure (SMILES)	GI50 (A549)	GI50 (COLO 205)	GI50 (HL-60)	GI50 (HOP-92)	GI50 (HT-29)	GI50 (IGROV-1)	GI50 (K562)	GI50 (M14)	GI50 (MCF7)	GI50 (MDA-MB-231)	GI50 (MDA-MB-435)	GI50 (NCI-H226)	GI50 (OVCAR-4)	GI50 (PC-3)	GI50 (SK-OV-3)	GI50 (SNB-19)	GI50 (SR)	GI50 (SW-620)	GI50 (U-251)	GI50 (UACC-62)
CC(=O)NC1C(OCc2ccccc2)OC(CO)C(O)C1OCC(=O)N[C@@H](C)C(=O)N[C@H](CCC(=O)NCCCNc1c2ccccc2nc2cccc([N+](=O)[O-])c12)C(N)=O (stereo not given in full)	0.0245 µM (active)	0.0118 µM (active)	0.0559 µM (active)	0.0295 µM (active)	< 0.0149 µM (active)	0.0506 µM (active)	0.0229 µM (active)	0.0341 µM (active)	0.018 µM (active)	0.05 µM (active)	0.0295 µM (active)	0.0586 µM (active)	0.0418 µM (active)	0.0368 µM (active)	0.334 µM (active)	0.16 µM (active)	0.0249 µM (active)	0.0172 µM (active)	0.0349 µM (active)	0.0321 µM (active)
COc1ccc([C@]23CCC4(OCC(C)(C)CO4)[C@H]4CON(O[C@H](O[C@@H]5CCCCC5C(C)(C)c5ccccc5)C2)[C@@H]43)cc1OC (stereo not given in full)	42.3 µM (inactive)	34.7 µM (inactive)	20.6 µM (inactive)	25.8 µM (inactive)	44 µM (inactive)	32.7 µM (inactive)	21.5 µM (inactive)	35.6 µM (inactive)	30.1 µM (inactive)	81.7 µM (inactive)	25.9 µM (inactive)	58.6 µM (inactive)	26.1 µM (inactive)	39.6 µM (inactive)	78.3 µM (inactive)	61.7 µM (inactive)	20 µM (inactive)	36.4 µM (inactive)	64 µM (inactive)	30.4 µM (inactive)
CN(C)Cc1cc(/N=N/c2ccccc2Cl)ccc1O	9.12 µM (inactive)	13.4 µM (inactive)	10.8 µM (inactive)	17.1 µM (inactive)	14.2 µM (inactive)	25.8 µM (inactive)	16.7 µM (inactive)	19.3 µM (inactive)	16.8 µM (inactive)	18.2 µM (inactive)	17.7 µM (inactive)	16.1 µM (inactive)	52.6 µM (inactive)	27.5 µM (inactive)	39.2 µM (inactive)	32.2 µM (inactive)	26.5 µM (inactive)	13.3 µM (inactive)	23.7 µM (inactive)	18.6 µM (inactive)
O=C(Cc1nc2ccccc2[nH]c1=O)c1c[nH]c2ccccc12	10.9 µM (inactive)	11.1 µM (inactive)	10.3 µM (inactive)	23.2 µM (inactive)	6.08 µM (inactive)	20.3 µM (inactive)	6.07 µM (inactive)	15.3 µM (inactive)	11.6 µM (inactive)	19.1 µM (inactive)	13.7 µM (inactive)	11.9 µM (inactive)	11.4 µM (inactive)	10.5 µM (inactive)	18.1 µM (inactive)	25.8 µM (inactive)	4.42 µM (inactive)	24.9 µM (inactive)	13.7 µM (inactive)	13.6 µM (inactive)
COc1cc2c(cc1OCCCC(=O)Nc1cc(C(=O)Nc3cc(C(=O)Nc4cc(C(=O)NCCCN(C)C)n(C)c4)n(C)c3)n(C)c1)N=C[C@@H]1CCCN1C2=O	11.2 µM (inactive)	1.61 µM (inactive)	1.16 µM (inactive)	1.88 µM (inactive)	1.91 µM (inactive)	3.1 µM (inactive)	2.19 µM (inactive)	1.66 µM (inactive)	2.16 µM (inactive)	2.3 µM (inactive)	1.79 µM (inactive)	5.56 µM (inactive)	1.95 µM (inactive)	2.28 µM (inactive)	14.6 µM (inactive)	6.32 µM (inactive)	0.367 µM (active)	1.69 µM (inactive)	1.6 µM (inactive)	2.19 µM (inactive)
CC(C)=CCC[C@@H](C)c1c2ncc[nH]c-2c(C)c(=O)c1O	22.1 µM (inactive)	28.8 µM (inactive)	7.03 µM (inactive)	23.8 µM (inactive)	27.4 µM (inactive)	26.7 µM (inactive)	21.7 µM (inactive)	27.9 µM (inactive)	36.8 µM (inactive)	25.2 µM (inactive)	41.9 µM (inactive)	16.9 µM (inactive)	26.1 µM (inactive)	35.2 µM (inactive)	31.8 µM (inactive)	25.9 µM (inactive)	51.3 µM (inactive)	33.1 µM (inactive)	43.6 µM (inactive)	18.7 µM (inactive)
COc1ccc(COCC[C@H](C)OC2OC(CO)C(O)C(O)C2O)cc1 (stereo not given in full)	> 100 µM (inactive)	> 100 µM (inactive)	> 100 µM (inactive)	> 100 µM (inactive)	> 100 µM (inactive)	> 100 µM (inactive)	> 100 µM (inactive)	> 100 µM (inactive)	> 100 µM (inactive)	> 100 µM (inactive)	> 100 µM (inactive)	> 100 µM (inactive)	> 100 µM (inactive)	> 100 µM (inactive)	> 100 µM (inactive)	> 100 µM (inactive)	> 100 µM (inactive)	> 100 µM (inactive)	> 100 µM (inactive)	> 100 µM (inactive)
O=C(/C=C\Nc1ccccc1O)C(F)(F)F	> 100 µM (inactive)	13.9 µM (inactive)	16.6 µM (inactive)	> 100 µM (inactive)	> 100 µM (inactive)	78.9 µM (inactive)	38.5 µM (inactive)	40.3 µM (inactive)	43.9 µM (inactive)	> 100 µM (inactive)	60.1 µM (inactive)	> 100 µM (inactive)	71.9 µM (inactive)	37.3 µM (inactive)	49.1 µM (inactive)	> 100 µM (inactive)	36.3 µM (inactive)	> 100 µM (inactive)	41.6 µM (inactive)	45.4 µM (inactive)
CC(C)c1ccc(/C=C2\N=C(c3ccc([N+](=O)[O-])cc3)OC2=O)cc1	> 100 µM (inactive)	> 100 µM (inactive)	> 100 µM (inactive)	> 100 µM (inactive)	> 100 µM (inactive)	> 100 µM (inactive)	> 100 µM (inactive)	> 100 µM (inactive)	> 100 µM (inactive)	> 100 µM (inactive)	> 100 µM (inactive)	> 100 µM (inactive)	> 100 µM (inactive)	> 100 µM (inactive)	> 100 µM (inactive)	> 100 µM (inactive)	> 100 µM (inactive)	> 100 µM (inactive)	54.2 µM (inactive)	> 100 µM (inactive)
Cc1cc(C2(c3cc(C)c(O)c(C(=O)O)c3)OS(=O)(=O)c3ccccc32)cc(C(=O)O)c1O	> 100 µM (inactive)	> 100 µM (inactive)	> 100 µM (inactive)	> 100 µM (inactive)	> 100 µM (inactive)	> 100 µM (inactive)	> 100 µM (inactive)	> 100 µM (inactive)	> 100 µM (inactive)	> 100 µM (inactive)	> 100 µM (inactive)	> 100 µM (inactive)	> 100 µM (inactive)	> 100 µM (inactive)	> 100 µM (inactive)	> 100 µM (inactive)	> 100 µM (inactive)	> 100 µM (inactive)	> 100 µM (inactive)	> 100 µM (inactive)
O=C(O)C1(Cc2ccc3c(c2)CCC3)Cc2ccccc2C1=O (stereo not given)	42.3 µM (inactive)	52.6 µM (inactive)	43.5 µM (inactive)	20.8 µM (inactive)	> 100 µM (inactive)	57.8 µM (inactive)	50.5 µM (inactive)	> 100 µM (inactive)	> 100 µM (inactive)	> 100 µM (inactive)	> 100 µM (inactive)	91.4 µM (inactive)	55.6 µM (inactive)	46.7 µM (inactive)	50.6 µM (inactive)	79.3 µM (inactive)	59 µM (inactive)	75.7 µM (inactive)	38.4 µM (inactive)	57.9 µM (inactive)
CC(=O)/C=N/CC(=O)O	> 100 µM (inactive)	> 100 µM (inactive)	> 100 µM (inactive)	> 100 µM (inactive)	> 100 µM (inactive)	> 100 µM (inactive)	> 100 µM (inactive)	> 100 µM (inactive)	> 100 µM (inactive)	> 100 µM (inactive)	> 100 µM (inactive)	> 100 µM (inactive)	> 100 µM (inactive)	> 100 µM (inactive)	> 100 µM (inactive)	> 100 µM (inactive)	> 100 µM (inactive)	> 100 µM (inactive)	> 100 µM (inactive)	> 100 µM (inactive)
CC(=O)OC12CC(C)C3(O)C4C=C(C)C(=O)[C@@]4(O)CC(CO)=C[C@H]3C1C2(C)C (stereo not given in full)	2.38 µM (inactive)	1.88 µM (inactive)	0.887 µM (active)	65.8 µM (inactive)	> 10 µM (inactive)	> 10 µM (inactive)	0.494 µM (active)	> 10 µM (inactive)	> 10 µM (inactive)	> 10 µM (inactive)	3.67 µM (inactive)	> 10 µM (inactive)	> 10 µM (inactive)	> 1000 µM (inactive)	794 µM (inactive)	> 10 µM (inactive)	> 10 µM (inactive)	5.73 µM (inactive)	> 10 µM (inactive)	771 µM (inactive)
O=C1c2ccccc2-c2cc([N+](=O)[O-])c([N+](=O)[O-])cc21	2.43 µM (inactive)	2.11 µM (inactive)	0.564 µM (active)	1.72 µM (inactive)	1.91 µM (inactive)	1.49 µM (inactive)	2.16 µM (inactive)	1.77 µM (inactive)	1.38 µM (inactive)	1.8 µM (inactive)	1.65 µM (inactive)	4.21 µM (inactive)	1.81 µM (inactive)	1.55 µM (inactive)	2.66 µM (inactive)	1.71 µM (inactive)	0.13 µM (active)	1.58 µM (inactive)	1.56 µM (inactive)	1.66 µM (inactive)
